± gives the uncertainty stated by the source.
Assay: xn = mol fraction of the nth substance listed
Details: 101 kPa

CCC(C)O (stereo not given) + CN(C)C=O
viscosity [mPa·s]
Details | 298.15 K | 303.15 K | 308.15 K | 313.15 K
x2 = 0.085 | 2.48 ± 0.06 | 2.11 ± 0.05 | 1.78 ± 0.04 | 1.52 ± 0.03
x2 = 0.164 | 2.2 ± 0.1 | 1.83 ± 0.04 | 1.57 ± 0.04 | 1.35 ± 0.03
x2 = 0.2446 | 2 ± 0.05 | 1.65 ± 0.04 | 1.41 ± 0.03 | 1.23 ± 0.03
x2 = 0.3503 | 1.8 ± 0.1 | 1.5 ± 0.1 | 1.29 ± 0.03 | 1.13 ± 0.03
x2 = 0.4398 | 1.65 ± 0.04 | 1.39 ± 0.03 | 1.19 ± 0.03 | 1.07 ± 0.02
x2 = 0.5035 | 1.51 ± 0.37 | – | – | –
x2 = 0.5738 | 1.44 ± 0.03 | 1.23 ± 0.03 | 1.08 ± 0.02 | 1.01 ± 0.02
x2 = 0.6512 | 1.32 ± 0.03 | 1.14 ± 0.03 | 1.02 ± 0.02 | 0.97 ± 0.02
x2 = 0.7515 | 1.17 ± 0.03 | 1.03 ± 0.02 | 0.93 ± 0.02 | 0.91 ± 0.02
x2 = 0.841 | 1.03 ± 0.02 | 0.93 ± 0.02 | 0.85 ± 0.02 | 0.86 ± 0.02
x2 = 0.9435 | 0.88 ± 0.02 | 0.82 ± 0.02 | 0.76 ± 0.02 | 0.79 ± 0.02

Cc1ccc(O)cc1 + CN(C)C=O
viscosity [mPa·s]
Details | 303.15 K | 308.15 K | 313.15 K | 318.15 K
x1 = 0.0758 | 0.908 ± 0.007 | 0.787 ± 0.006 | 0.769 ± 0.006 | 0.732 ± 0.006
x1 = 0.1553 | 1.098 ± 0.009 | 0.988 ± 0.008 | 0.913 ± 0.007 | 0.845 ± 0.007
x1 = 0.2404 | 1.444 ± 0.011 | 1.208 ± 0.01 | – | 1.087 ± 0.009
x1 = 0.3298 | 1.832 ± 0.014 | 1.611 ± 0.013 | 1.465 ± 0.011 | 1.339 ± 0.011
x1 = 0.4247 | 2.452 ± 0.019 | 2.165 ± 0.017 | 1.952 ± 0.015 | 1.755 ± 0.014
x1 = 0.5155 | – | 2.886 ± 0.022 | – | –
x1 = 0.5255 | 3.351 ± 0.026 | – | – | 2.273 ± 0.017
x1 = 0.5256 | – | – | 2.562 ± 0.02 | –
x1 = 0.6327 | 4.534 ± 0.034 | 3.905 ± 0.029 | 3.375 ± 0.025 | 2.954 ± 0.022
x1 = 0.7472 | 6.256 ± 0.045 | 5.298 ± 0.039 | 4.489 ± 0.033 | 3.852 ± 0.029
x1 = 0.8692 | 7.994 ± 0.056 | 6.386 ± 0.046 | 5.777 ± 0.042 | 4.485 ± 0.034

CC(O)CC(C)(C)O (stereo not given) + CN(C)c1ccccc1
viscosity [mPa·s]
Details | x1 = 0.0947 | x1 = 0.1893 | x1 = 0.2866 | x1 = 0.3878 | x1 = 0.4988 | x1 = 0.5875 | x1 = 0.6895 | x1 = 0.7899 | x1 = 0.8859
308.15 K | 1.042 ± 0.1 | 1.107 ± 0.11 | 1.216 ± 0.12 | 1.395 ± 0.14 | 1.761 ± 0.18 | 2.037 ± 0.2 | 2.999 ± 0.3 | 5.285 ± 0.53 | 9.275 ± 0.93
318.15 K | 0.8643 ± 0.087 | 0.9274 ± 0.093 | 1.015 ± 0.1 | 1.185 ± 0.12 | 1.416 ± 0.14 | 1.688 ± 0.17 | 2.505 ± 0.25 | 4.534 ± 0.45 | 8.117 ± 0.81

C1CC[NH2+]C1.CCCCCCCC(=O)[O-] + CO
viscosity [mPa·s]
Details | x1 = 0.1021 | x1 = 0.2025 | x1 = 0.3023 | x1 = 0.3896 | x1 = 0.5185 | x1 = 0.5972 | x1 = 0.7086 | x1 = 0.7895 | x1 = 0.844
293.15 K | 4.58 ± 0.92 | 7.4 ± 1.5 | 10.73 ± 2.1 | 14.46 ± 2.9 | 22.6 ± 4.5 | 28 ± 5.6 | 38.68 ± 7.8 | 47.37 ± 9.5 | 55.2 ± 11
298.15 K | 3.6 ± 0.72 | 6.53 ± 1.3 | 10.37 ± 2.1 | 13.1 ± 2.6 | 19.44 ± 3.9 | 24.57 ± 4.9 | 33.84 ± 6.8 | 41.18 ± 8.3 | 48.18 ± 9.7
303.15 K | 3.6 ± 0.72 | 6 ± 1.2 | 8.9 ± 1.8 | 10.82 ± 2.2 | 15.84 ± 3.2 | 20.9 ± 4.2 | 27.67 ± 5.6 | 34.45 ± 6.9 | 38.6 ± 7.8
308.15 K | 4.08 ± 0.82 | 5.69 ± 1.1 | 8.64 ± 1.7 | 10.07 ± 2 | 15.33 ± 3.1 | 19.02 ± 3.8 | 24.21 ± 4.9 | 29.56 ± 6 | 33.63 ± 6.8
313.15 K | 4 ± 0.8 | 5.4 ± 1.1 | 7.17 ± 1.4 | 9.15 ± 1.8 | 13.26 ± 2.7 | 15.69 ± 3.1 | 21.37 ± 4.3 | 25.39 ± 5.1 | 28.41 ± 5.7

Cc1cccc(C)c1 + CO
293.15 K
Details | viscosity [mPa·s]
x2 = 0.2 | 0.622 ± 0.012
x2 = 0.4 | 0.626 ± 0.013
x2 = 0.5 | 0.646 ± 0.013
x2 = 0.6 | 0.662 ± 0.013
x2 = 0.7 | 0.654 ± 0.013
x2 = 0.8 | 0.641 ± 0.013
